Results published in patent EP1289977B1, “TRITERPENOID DERIVATIVES AND THEIR USE AS ANTIPROLIFERATIVE AGENTS” (Univerzita palackeho V Olomouci, priority 2000, dated 2001).

Key:
Type in all cases: cell-based
Saos2 = experiment: MTT cytotoxicity assay, Saos2; conditions: SAOS-2, Saos2, human osteosarcoma, p53-/-, Rb-/-, 72 hours, read-out: TCS50
Text: (§1) One of the parameters used as the basis for colorimetric assays is the metabolic activity of viable cells. For example, a microtiter assay which uses the tetrazolium salt MTT is now widely used to quantitate cell proliferation and cytotoxicity [Hajduch M, Mihal V, Minarik J, Fáber E, ? afárová M, Weigl E, Antálek P.: Cytotechnology, 1996,19,243-245]. For instance, this assay is used in drug screening programs and in chemosensitivity testing. Because tetrazolium salts are cleaved only by metabolically active cells, these assays exclusively detect viable cells. In the case of the MTT assay, yellow soluble tetrazolium salt is reduced to a coloured water-insoluble formazan salt. After it is solubilized, the formazan formed can easily and rapidly be quantified in a conventional ELISA plate reader at 570 nm (maximum absorbancy). The quantity of reduced formazan corresponds to the number of vital cells in the culture. […]
(§2) The cell suspensions that were prepared and diluted according to the particular cell type and the expected target cell density (2.500-30.000 cells per well based on cell growth characteristics) were added by pipette (80 µl) into 96/well microtiter plates. […] Usually, test compounds were evaluated at six 4-fold dilutions. […] The optical density (OD) was measured at 540nm with the Labsystem iEMS Reader MF (UK). […]

K562-GEM = experiment: MTT cytotoxicity assay, K562-GEM; conditions: human chronic myelogenous leukemia, gemcitabin resistant, 72 hours, read-out: TCS50
Text: as §1, §2

BT549 = experiment: MTT cytotoxicity assay, BT549; conditions: BT-549, BT549, human breast cancer, p53mut/mut, 72 hours, read-out: TCS50
Text: as §1, §2

U20S = experiment: MTT cytotoxicity assay, U20S; conditions: human osteosarcoma, p53+/-, Rb +/-, 72 hours, read-out: TCS50
Text: as §1, §2

K562-FLUD = experiment: MTT cytotoxicity assay, K562-FLUD; conditions: human chronic myelogenous leukemia, fludarabin resistant, 72 hours, read-out: TCS50
Text: as §1, §2

OVCAR-3 = experiment: MTT cytotoxicity assay, OVCAR-3; conditions: OVCAR-3, human ovarian cancer, 72 hours, read-out: TCS50
Text: as §1, §2

B16 = experiment: MTT cytotoxicity assay, B16; conditions: B16, mouse melanoma, 72 hours, read-out: TCS50
Text: as §1, §2

MEL-3 = experiment: MTT cytotoxicity assay, MEL-3; conditions: MEL-3, human melanoma, 72 hours, read-out: TCS50
Text: as §1, §2

Caco-2 = experiment: MTT cytotoxicity assay, Caco-2; conditions: Caco-2, human colon cancer, 72 hours, read-out: TCS50
Text: as §1, §2

K562-CdA = experiment: MTT cytotoxicity assay, K562-CdA; conditions: human chronic myelogenous leukemia, cladrubin resistant, 72 hours, read-out: TCS50
Text: as §1, §2

LNCaP = experiment: MTT cytotoxicity assay, LNCaP; conditions: human prostate cancer, androgen dependent, 72 hours, read-out: TCS50
Text: as §1, §2

U87MG = experiment: MTT cytotoxicity assay, U87MG; conditions: U-87 MG, human glioblastoma, 72 hours, read-out: TCS50
Text: as §1, §2

CEM-DNR bulk = experiment: MTT cytotoxicity assay, CEM-DNR bulk; conditions: human T-lymphoblastic leukemia, daunorubicin resistant, 72 hours, read-out: TCS50
Text: as §1, §2

CEM = experiment: MTT cytotoxicity screening assay, CEM; conditions: CCRF-CEM, human T-lymphoblastic leukemia, 72 hours, read-out: TCS50
Text: One of the parameters used as the basis for colorimetric assays is the metabolic activity of viable cells. For example, a microtiter assay which uses the tetrazolium salt MTT is now widely used to quantitate cell proliferation and cytotoxicity [Hajduch M, Mihal V, Minarik J, Fáber E, ? afárová M, Weigl E, Antálek P.: Cytotechnology, 1996,19,243-245]. For instance, this assay is used in drug screening programs and in chemosensitivity testing. Because tetrazolium salts are cleaved only by metabolically active cells, these assays exclusively detect viable cells. In the case of the MTT assay, yellow soluble tetrazolium salt is reduced to a coloured water-insoluble formazan salt. After it is solubilized, the formazan formed can easily and rapidly be quantified in a conventional ELISA plate reader at 570 nm (maximum absorbancy). The quantity of reduced formazan corresponds to the number of vital cells in the culture.
Human T-lymphoblastic leukaemia cell line CEM was used for routine screening of these compounds. […] The cells were maintained in Nunc/Coming 80 cm^2 plastic tissue culture flasks and cultured in cell culture medium (DMEM with 5 g/l glucose, 2mM glutamine, 100 U/ml penicillin, 100 µg/ml streptomycin, 10% foetal calf serum and sodium bicarbonate). Individual compounds were dissolved in 10% dimethylsulfoxide/saline, pH 8.0.
The cell suspensions that were prepared and diluted according to the particular cell type and the expected target cell density (2.500-30.000 cells per well based on cell growth characteristics) were added by pipette (80 µl) into 96/well microtiter plates. Inoculates were allowed a pre-incubation period of 24 hours at 37°C and 5% CO2 for stabilisation. Four-fold dilutions of the intended test concentration were added at time zero in 20 µl aliquots to the microtiter plate wells. Usually, test compounds were evaluated at six 4-fold dilutions. In routine testing, the highest well concentration was 250 µM, but it may differ, depending on the agent. All drug concentrations were examined in duplicate. Incubations of cells with the test compounds lasted for 72 hours at 37°C, in 5% CO2 atmosphere and 100% humidity. At the end of the incubation period, the cells were assayed by using the MTT assay. Ten microliters of the MTT stock solution were pipetted into each well and incubated further for 1-4 hours. […] The optical density (OD) was measured at 540nm with the Labsystem iEMS Reader MF (UK). The tumour cell survival (TCS) was calculated using the following equitation: TCS= (ODdrug exposed well /mean ODcontrol wells) x 100%. The TCS50 value, the drug concentration lethal to 50% of the tumour cells, was calculated from the obtained dose response curves. […]

A549 = experiment: MTT cytotoxicity assay, A549; conditions: A549, human lung adenocarcinoma, 72 hours, read-out: TCS50
Text: as §1, §2

DU145 = experiment: MTT cytotoxicity assay, DU145; conditions: DU-145, DU145, human prostate cancer, androgen independent, Rb-/-, 72 hours, read-out: TCS50
Text: as §1, §2

MDA-MB-238 = experiment: MTT cytotoxicity assay, MDA-MB-238; conditions: MDA-MB-238, human breast cancer, estrogen independent, p53mut/mut, 72 hours, read-out: TCS50
Text: as §1, §2

SW620 = experiment: MTT cytotoxicity assay, SW620; conditions: SW-620, SW620, human colon cancer, metastasis, 72 hours, read-out: TCS50
Text: as §1, §2

NIH3T3 = experiment: MTT cytotoxicity assay, NIH3T3; conditions: NIH3T3, mouse immortalised fibroblasts (non-malignant), 72 hours, read-out: TCS50
Text: as §1, §2

CEM-VCR bulk = experiment: MTT cytotoxicity assay, CEM-VCR bulk; conditions: human T-lymphoblastic leukemia, vincristin resistant, 72 hours, read-out: TCS50
Text: as §1, §2

CEM-DNR 1/C2 = experiment: MTT cytotoxicity assay, CEM-DNR 1/C2; conditions: CEM-DNR 1/C2, human T-lymphoblastic leukemia, daunorubicin resistant, 72 hours, read-out: TCS50
Text: as §1, §2

B16F = experiment: MTT cytotoxicity assay, B16F; conditions: mouse melanoma, metastatic, 72 hours, read-out: TCS50
Text: as §1, §2

MCF-7 = experiment: MTT cytotoxicity assay, MCF-7; conditions: MCF7, MCF-7, human breast cancer, estrogen dependent, p53+/+, Rb +/+, 72 hours, read-out: TCS50
Text: as §1, §2

HepG2 = experiment: MTT cytotoxicity assay, HepG2; conditions: HepG2, human hepatocellular carcinoma, 72 hours, read-out: TCS50
Text: as §1, §2

K562-ARA-C = experiment: MTT cytotoxicity assay, K562-ARA-C; conditions: human chronic myelogenous leukemia, cytarabin resistant, 72 hours, read-out: TCS50
Text: as §1, §2

human normal lymphocytes = experiment: MTT cytotoxicity assay, normal lymphocytes; conditions: Lymphocyte, human normal lymphocytes (non-malignant), 72 hours, read-out: TCS50
Text: as §1, §2

CEM-VCR 3/D5 = experiment: MTT cytotoxicity assay, CEM-VCR 3/D5; conditions: CEM-VCR 3/D5, human T-lymphoblastic leukemia, vincristin resistant, 72 hours, read-out: TCS50
Text: as §1, §2

K562 = experiment: MTT cytotoxicity assay, K562; conditions: K562, human chronic myelogenous leukemia, 72 hours, read-out: TCS50
Text: as §1, §2

CEM-VCR 1/F3 = experiment: MTT cytotoxicity assay, CEM-VCR 1/F3; conditions: CEM-VCR 1/F3, human T-lymphoblastic leukemia, vincristin resistant, 72 hours, read-out: TCS50
Text: as §1, §2

HT-29 = experiment: MTT cytotoxicity assay, HT-29; conditions: HT-29, human colon cancer, 72 hours, read-out: TCS50
Text: as §1, §2

Row | Structure (SMILES) | IC50 (Saos2) [µM] | IC50 (BT549) [µM] | IC50 (U20S) [µM] | IC50 (K562-FLUD) [µM] | IC50 (OVCAR-3) [µM] | IC50 (B16) [µM] | IC50 (MEL-3) [µM] | IC50 (Caco-2) [µM] | IC50 (K562-CdA) [µM] | IC50 (LNCaP) [µM] | IC50 (U87MG) [µM] | IC50 (CEM-DNR bulk) [µM] | IC50 (CEM) [µM] | IC50 (A549) [µM] | IC50 (DU145) [µM] | IC50 (MDA-MB-238) [µM] | IC50 (SW620) [µM] | IC50 (NIH3T3) [µM] | IC50 (CEM-VCR bulk) [µM] | IC50 (CEM-DNR 1/C2) [µM] | further results
1 | CC1(C)CC[C@]23CC[C@]4(C)[C@H](CC[C@@H]5[C@@]6(C)CC(Br)C(=O)C(C)(C)[C@@H]6CC[C@]54C)[C@H]2[C@H]1OC3 (stereo partly drawn) [III.3, 2-brom-3-oxo-19β,28β-epoxy-18α-oleanan] | 1.8 | 2 | 1.5 | 0.4 | 1 | 2.1 | 1.3 | 3 | 0.3 | 1.1 | 5.1 | 1.1 | 1 | 1 | 0.8 | 1.4 | 1.2 | 7.2 | 2.5 | 0.6 | IC50 (K562-GEM): 0.9 µM; IC50 (B16F): 4.7 µM; IC50 (MCF-7): 2.3 µM; IC50 (HepG2): 1.7 µM; IC50 (K562-ARA-C): 0.6 µM; IC50 (human normal lymphocytes): 13 µM; IC50 (CEM-VCR 3/D5): 2.9 µM; IC50 (K562): 0.2 µM; IC50 (CEM-VCR 1/F3): 3.3 µM; IC50 (HT-29): 1.6 µM
2 | C=C(C)[C@@H]1CC[C@]2(C(=O)O)CC[C@]3(C)[C@H](CC[C@@H]4[C@@]5(C)CC[C@H](O)C(C)(C)[C@@H]5CC[C@]43C)[C@@H]12 [Betulinic Acid, betulinic acid, reference compound] | 250 | 250 | 250 | 250 | 164 | 36 | 2.7 | 20 | 250 | 244 | 250 | 250 | 250 | 236 | 241 | 195 | 250 | 250 | 69 | 250 | IC50 (B16F): 4.6 µM; IC50 (MCF-7): 194 µM; IC50 (HepG2): 3.6 µM; IC50 (K562-ARA-C): 250 µM; IC50 (human normal lymphocytes): 250 µM; IC50 (CEM-VCR 3/D5): 24 µM; IC50 (K562): 250 µM; IC50 (CEM-VCR 1/F3): 19 µM; IC50 (HT-29): 250 µM
3 | CC1(C)CC[C@]23CC[C@]4(C)[C@H](CC[C@@H]5[C@@]6(C)CC(F)(F)C(=O)C(C)(C)[C@@H]6CC[C@]54C)[C@H]2[C@H]1OC3 [III.14, 19β,28β-epoxy-2,2-difluoro-18α-oleanan-3-one] | – | – | – | – | – | – | – | – | – | – | – | – | 170 | – | – | – | – | – | – | – | –
4 | CC1(C)CC[C@]23CC[C@]4(C)[C@H](CC[C@@H]5[C@@]6(C)CC(N=[N+]=[N-])C(=O)C(C)(C)[C@@H]6CC[C@]54C)[C@H]2[C@H]1OC3 (stereo partly drawn) [III.10, 2-azido-3-oxo-19β,28β-epoxy-18α-oleanan] | – | – | – | – | – | – | – | – | – | – | – | – | 13 | – | – | – | – | – | – | – | –
